Assay results taken from PubChem BioAssay (NCI).
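The concentration for 50% growth inhibition is given as GI50. The concentration for full growth arrest is given as TGI.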

Experiments:
Experiment in all cases: NCI tumour cell line growth inhibition, 384-well format
BT-549 breast = system: BT-549 breast
MCF7 breast = system: MCF7 breast
NCI-H226 lung = system: NCI-H226 lung
SN12C renal = system: SN12C renal
NCI-H23 lung = system: NCI-H23 lung
UO-31 renal = system: UO-31 renal
SK-MEL-2 melanoma = system: SK-MEL-2 melanoma
OVCAR-3 ovarian = system: OVCAR-3 ovarian
RPMI-8226 leukemia = system: RPMI-8226 leukemia
SR leukemia = system: SR leukemia
HL-60(TB) leukemia = system: HL-60(TB) leukemia
ACHN renal = system: ACHN renal
HS 578T breast = system: HS 578T breast

Q: For CCS(=O)(=O)N1CCC(C(C)n2c(C)c(C(=O)NCc3c(OC)cc(C)[nH]c3=O)c3ccccc32)CC1 (stereo unspecified), which GI50 (BT-549 breast) is on record?
A: > 100 µM

Q: And the TGI (BT-549 breast)?
A: > 100 µM

Q: And the GI50 (MCF7 breast)?
A: > 78.3 µM

Q: And the TGI (MCF7 breast)?
A: > 100 µM

Q: And the GI50 (NCI-H226 lung)?
A: > 100 µM

Q: And the TGI (NCI-H226 lung)?
A: > 100 µM

Q: What about the GI50 (SN12C renal) of the same compound?
A: > 100 µM

Q: And the TGI (SN12C renal)?
A: > 100 µM

Q: And the GI50 (NCI-H23 lung)?
A: > 100 µM

Q: And the TGI (NCI-H23 lung)?
A: > 100 µM

Q: What about the GI50 (UO-31 renal) of the same compound?
A: > 100 µM

Q: What about the TGI (UO-31 renal) of the same compound?
A: > 100 µM

Q: And the GI50 (SK-MEL-2 melanoma)?
A: > 100 µM

Q: What about the TGI (SK-MEL-2 melanoma) of the same compound?
A: > 100 µM

Q: And the GI50 (OVCAR-3 ovarian)?
A: > 100 µM

Q: What about the TGI (OVCAR-3 ovarian) of the same compound?
A: > 100 µM

Q: And the GI50 (RPMI-8226 leukemia)?
A: 7.49 µM

Q: What about the TGI (RPMI-8226 leukemia) of the same compound?
A: > 86.4 µM

Q: What about the GI50 (SR leukemia) of the same compound?
A: > 100 µM

Q: What about the TGI (SR leukemia) of the same compound?
A: > 100 µM

Q: And the GI50 (HL-60(TB) leukemia)?
A: > 100 µM

Q: What about the TGI (HL-60(TB) leukemia) of the same compound?
A: > 100 µM

Q: What about the GI50 (ACHN renal) of the same compound?
A: > 100 µM

Q: And the TGI (ACHN renal)?
A: > 100 µM

Q: What about the GI50 (HS 578T breast) of the same compound?
A: > 100 µM

Q: What about the TGI (HS 578T breast) of the same compound?
A: > 100 µM
